Results taken from patent US9302993B2, “8-hydroxy quinoline derivatives” (PRANA BIOTECHNOLOGY LIMITED, priority 2002, dated 2016).
Like-named read-outs stand apart in the source and are kept apart here.

Columns and labels:
[1] = tested on: Aβ in extract of tissue from post mortem human AD brain; assay: Human brain amyloid solubilisation assay (Assay 9, BAS); type: biochemical
Procedure: Assay 9. Human Brain Amyloid Solubilisation Assay
This assay was performed in order to assess the ability of a test compound to mobilise Aβ from the insoluble to the soluble phase of an extract of tissue from post mortem human AD brain.
Up to 0.5 g of plaque-bearing cortex without meninges was homogenized using a DIAX 900 homogenizer (Heudolph and Co, Kelheim, Germany) or other suitable device for three 30-second periods at full speed in 2 ml of ice-cold phosphate-buffered saline, pH 7.4. To obtain the phosphate-buffered saline-extractable fraction, the homogenate was centrifuged at 100,000×g for 30 min and the supernatant removed. Alternatively, the tissue was freeze dried then pulverised to form a powder which was then weighed out into aliquots for extraction as above. Supernatant, either freeze-dried and resuspended or in unconcentrated form, was dissolved in 200 μl of Tris-Tricine sodium dodecyl sulfate (SDS) sample buffer pH 8.3 containing 8% SDS, 10% 2-mercaptoethanol. Aliquots (10 μl) were then boiled for 10 minutes before SDS-polyacrylamide gel electrophoresis. The insoluble fraction of the cortical samples was obtained by resuspending the initial pelleted sample in 1 ml of phosphate-buffered saline. A 50-μl aliquot of this suspension was then boiled in […] of sample buffer as above.
Tris-Tricine polyacrylamide gel electrophoresis was performed by loading appropriately diluted samples on to 10% to 20% gradient gels (Novex, San Diego, Calif.) followed by transfer on to 0.2-μm nitrocellulose membrane (Bio-Rad, Hercules, Calif.). Aβ was detected by using monoclonal antibody W02, which detects residues 5 through 8, […] (or another suitable antibody) in conjunction with horseradish peroxidase-conjugated rabbit anti-mouse IgG (Dako, Denmark), and visualized by using enhanced chemiluminescence (eg ECL; Amersham Life Science, Buckinghamshire, UK). Each gel included three lanes containing 0.5, 1, and 2 ng of synthetic Aβ40 (Keck Laboratory, Yale University, New Haven, Conn.) as reference standards.
Blot films were scanned by using a suitable imaging system such as the UVP gel documentation system, and densitometry performed using suitable software, eg UVP Labworks. The dynamic range of the film/scanner was determined by using a step tablet (No. 911ST600, Kodak, Rochester N.Y.), a calibrated film exposed by the manufacturer to provided steps of known increasing intensity. The quantifiable range of signal intensity for densitometric analysis of the mono- and dimeric Aβ bands was based on the comparison with a curve obtained by scanning and densitometry of the step tablet.
All samples were analysed at least twice, and gel loadings and dilutions were adjusted to fit within the quantifiable region of the standard curve. […] The insoluble Aβ being comprised of the pelletable fraction derived from the insoluble amyloid plaque from the above cortical samples and the soluble fraction comprising monomeric and/or oligomeric soluble Aβ.

Neuronal cortical cells = assay: Assay for test compound cytoxicity, MTS (Assay 3(d)); type: cell-based, mouse
[2] = tested on: Neuronal cortical cells treated with Aβ1-42; assay: Assay for Aβ neurotoxicity and Aβ neuroprotection (Assay 3(c)); type: cell-based, mouse; conditions: 20 uM Aβ1-42, 4 days, MTS
Procedure: Media was then replaced with Neurobasal media (Invitrogen Life Technologies) and B27 supplements (Invitrogen Life Technologies). Cultures were maintained at 37° C. in 5% CO2. Prior to experimentation, the culture medium was replaced with Neurobasal media and B27 minus antioxidants (Invitrogen Life Technologies).
(c) Assay for Aβ Neurotoxicity and Aβ Neuroprotection
Neuronal cortical cells were cultured for five days as per Assay 2. On day six the neurobasal (NB) media (Invitrogen Life Technologies) and B27 supplement (Invitrogen Life Technologies) were replaced with NB media and B27 supplement (no antioxidants). On day six, test compounds were individually added to the neuronal cell cultures:
Aβ was initially dissolved in 20 mM NaOH to a concentration of 1 mM and sonicated for 5 minutes. The peptide was then diluted in H2O and 10×PBS to a final concentration of 200 uM Aβ in 1×PBS. The peptide was again sonicated for 5 minutes and then spun at 14000 rpm for 5 min and transferred to a fresh tube.
The test compounds were dissolved in 100% DMSO to a concentration of 2.5 mM (10 mM if excess compound was weighed out per vial—then diluted to 2.5 mM). […] Test compounds were not added directly to cells, instead they were added to a 48 well ‘Drug Plate’ as comprised below:
The Drug Plate was incubated at 37° C. for 15 mins. 200 ul of each well was added in triplicate to the corresponding cell plate. The cell plate was incubated at 37 C, for 4 days.
On the 4th day after treating the cells the assay is completed by adding MTS to the cells.

[3] = target: T1, hydrogen peroxide generation by Aβ in the presence of copper (Homo sapiens, UniProt P05067); assay: Fluorometric H2O2 assay (Assay 1); type: biochemical; conditions: DCF/HRP, 37 C 60 min, several values in one cell = repeat determinations
T1 construct: The reaction solutions contained Aβ 1-42 at concentrations in the range of 50 nM to 1 μM
T1 sequence (P05067 672-713 limits assumed): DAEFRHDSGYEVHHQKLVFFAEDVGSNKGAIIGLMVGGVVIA
Method in brief: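 Aβ1-42 (50 nM–1 μM) with Cu-glycine (2 Cu-Gly : 1 Aβ) and a reductant (dopamine 5 μM or ascorbic acid) was incubated 60 min at 37 °C in PBS pH 7.4 with test compound. H2O2 was detected with 100 μM deacetylated DCF and 0.1 μM HRP by fluorescence against H2O2 standards.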

[4] = solubilising plaques relative to PBS
[5] = BL6J×129sv, mouse, 4 days, 1 uM
[6] = BL6J×129sv, mouse, 4 days, 10 uM
[7] = Peroxide IC50, Aβ 1-42 with Cu-Gly
[8] = Aβ 1-42 with Cu-Gly, read-out: Peroxide IC50

Row | Structure (SMILES) | BAS Score [1, 4] | Test Compound Cytoxicity 0.1 um (Neuronal cortical cells; BL6J×129sv, mouse, 4 days) [%] | Test Compound Cytoxicity 1 uM (Neuronal cortical cells; [5]) | Test Compound Cytoxicity 10 uM (Neuronal cortical cells; [6]) | Viable 10 uM (Neuronal cortical cells; [6]) | % inhibition Abeta toxicity [2] [%] | IC50 [3, 7] [nM] | BAS Score [1] | Cell viability (% viable cells, MTS) (Neuronal cortical cells; 1 uM, 4 days, in %) | Viable 10 uM (Neuronal cortical cells; 10 uM test compound, repeated lines = repeat determinations, in %) | Cell viability (% viable cells, MTS) (Neuronal cortical cells; 10 uM, 4 days, in %) | Cell viability (% viable cells, MTS) (Neuronal cortical cells; 0.1 um, 4 days) [%] | IC50 [3, 8] [nM]
1 | O=S(=O)(O)c1ccc(O)c2ncccc12 [compound 41] | + | 95 | 100 | 100 | 81.33 | 12 | 500 |  |  |  |  |  | 
2 | Nc1ccc2cccc(O)c2n1 [compound 54] |  |  |  |  |  | 100 | 1000 | + | 97 | 99.57 | 61 | 89 | 
3 | Oc1ccc(/C=C/c2ccc3cccc(O)c3n2)cc1 [compound 89] | + | 87 | 92 | 101 | 74.28 | −31 |  |  |  |  |  |  | 3000
4 | O=C(Nc1nccs1)c1ccc2cccc(O)c2n1 [compound 952] | + | 98 | 91 | 53 | 99.52 | 13 |  |  |  |  |  |  | < 810
5 | CN(c1ccc2cccc(O)c2n1)c1ccc2cccc(O)c2n1 [compound 56] | + | 108 | 74 | 31 |  | 17 |  |  |  |  |  |  | 700
6 | CCCCN(c1ccc2cccc(O)c2n1)c1ccc2cccc(O)c2n1 [compound 53] | + | 96 | 95 | 100 | 95.8 | −75 |  |  |  |  |  |  | 300
7 | COc1cccc(-c2cc(Cl)c3cccnc3c2O)c1 [compound 810] | + | 100 | 85 | 57 |  | 11 |  |  |  |  |  |  | > 10000
